The text below walks through data of US20120029187A1, “HALOALKYLSULFONANILIDE DERIVATIVE” (Nissan Chemical Industries, Ltd., priority 2009, published 2012).

Holding throughout (experiment): Test Example 4: herbicidal effect in foliage treatment
Format in all cases: in vivo
Holding throughout (conditions): dose 6.3 g/a, three weeks after application

One test concerns Italian ryegrass. The essentials:
(§1)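 Sowing in sterilized diluvial soil, ~1.5 cm cover; growth 14 d, 25–30° C greenhouse; foliar spray of water-diluted EC at predetermined g/a; scoring 3 wk later on graded scale.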

The next test has as its system redroot pigweed. The essentials: as §1
The subject of a further test is beadstraw. Put shortly:
as §1

The next test concerns barnyardgrass. The essentials: as §1
The subject of the next test is common ragweed. The essentials:
as §1

The next test concerns common lambsquater. The essentials:
as §1

A further test relates to common chickweed. The essentials:
as §1

Another test deals with large crabgrass. The essentials: as §1
Another test deals with giant foxtail. The essentials:
as §1

Another test deals with velvetleaf. The essentials: as §1
The test system of another test is water foxtail. Put shortly:
as §1

Another test relates to wild oat. Put shortly: as §1
Another test deals with posumbu knotweed. The essentials:
as §1

With `CC(C)COC(=O)N(c1ccccc1CN1COCCC1=O)S(=O)(=O)C(F)(F)F` [II-3], the “H: Italian ryegrass, herbicidal effect” value in the test on Italian ryegrass was 3 (mortality of at least 40% and less than 70%). In the test with redroot pigweed, the “K: redroot pigweed, herbicidal effect” value is 0 (mortality of less than 5% (almost ineffective)). Besides, the “O: beadstraw, herbicidal effect” value in the test on beadstraw is 3 (mortality of at least 40% and less than 70%). Besides, in the test with barnyardgrass, the “A: barnyardgrass, herbicidal effect” value was 5 (mortality of 90% or above (nearly complete death)). The “J: common ragweed, herbicidal effect” value with common ragweed was 2 (mortality of at least 20% and less than 40%). The “L: common lambsquater, herbicidal effect” value in the test with common lambsquater is 4 (mortality of at least 70% and less than 90%). Besides, the “N: common chickweed, herbicidal effect” value in the test on common chickweed is 3 (mortality of at least 40% and less than 70%). Also, in the test on large crabgrass, the “D: large crabgrass, herbicidal effect” value is reported as 5 (mortality of 90% or above (nearly complete death)). Further, the “E: giant foxtail, herbicidal effect” value with giant foxtail is reported as 5 (mortality of 90% or above (nearly complete death)). Further, in the test with velvetleaf, the “I: velvetleaf, herbicidal effect” value is on record as 5 (mortality of 90% or above (nearly complete death)). Moreover, in the test with water foxtail, the “G: water foxtail, herbicidal effect” value is listed as 5 (mortality of 90% or above (nearly complete death)). The “F: wild oat, herbicidal effect” value with wild oat was 0 (mortality of less than 5% (almost ineffective)). Besides, in the test on posumbu knotweed, the “M: posumbu knotweed, herbicidal effect” value is recorded as 0 (mortality of less than 5% (almost ineffective)).
